Measured values: article PMC7509555, “An In Vitro Study for Evaluating Permeability and Metabolism of Kurarinone” (Evidence-based Complementary and Alternative Medicine : eCAM, 2020)
Read-outs that look alike come from different tables or passages of the source.

What was measured:
[1] = design: method as in PMID 25703950; conditions: rats, cited from earlier work
PAMPA permeability study = type: in vitro ADME; conditions: for Papp at 5 h: PAMPA, room temperature, read-out: PAMPA effective permeability Pe
Experimental: The PAMPA method was used to measure the membrane permeability values, as described by Singh et al. in an earlier study. Drug samples were dissolved in DMSO and then diluted to 10 mM concentrations as a stock solution. 300 μL diluted drugs solution was filled in the PAMPA plate as the “donor” wells, and the 96-well filter plate with a synthetic phospholipid membrane was then placed on the donor wells. The “acceptor” wells were filled with 200 μl of buffer solution, and the PAMPA instruments were incubated at room temperature for 5 h. Kurarinone permeability was assessed in quadruplicate at pH 4.0 and 7.4. […] At the end of the incubation, kurarinone and the marker compounds in the donor and acceptor wells were determined by HPLC, and permeability was calculated.

UGT1A1 = target: T1, UGT1A1 (Homo sapiens, UniProt P22309); assay: Inhibition of recombinant UGT1A1-catalyzed 4-MU glucuronidation; type: in vitro ADME
T1 construct: purchased BD Gentest Corp. (Woburn, MA, USA)
T1 sequence (P22309 26-533): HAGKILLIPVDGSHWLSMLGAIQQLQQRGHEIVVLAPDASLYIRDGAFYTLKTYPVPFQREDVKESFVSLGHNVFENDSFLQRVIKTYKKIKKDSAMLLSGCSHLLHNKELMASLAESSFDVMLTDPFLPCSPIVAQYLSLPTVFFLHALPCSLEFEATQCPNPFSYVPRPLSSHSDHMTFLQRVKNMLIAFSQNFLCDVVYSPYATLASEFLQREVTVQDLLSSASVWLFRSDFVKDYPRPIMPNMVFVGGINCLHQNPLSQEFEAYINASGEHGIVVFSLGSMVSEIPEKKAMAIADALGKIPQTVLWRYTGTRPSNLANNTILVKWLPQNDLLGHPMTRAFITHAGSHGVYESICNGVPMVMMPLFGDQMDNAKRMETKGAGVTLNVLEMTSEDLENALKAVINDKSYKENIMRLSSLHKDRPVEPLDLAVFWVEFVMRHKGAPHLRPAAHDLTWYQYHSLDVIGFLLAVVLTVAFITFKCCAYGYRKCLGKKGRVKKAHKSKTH
Experimental: 4-MU, a nonspecific probe substrate for UGT isoforms, was used to explore the inhibition of UGT isoforms by kurarinone. The mixture (200 μL total volume) contained recombinant UGTs (final concentrations: 0.125, 0.05, 0.025, 0.05, 0.025, 0.05, 0.05, 0.25, 0.05, and 0.2 mg/mL for UGT1A1, UGT1A3, UGT1A6, UGT1A7, UGT1A8, UGT1A9, UGT1A10, UGT2B4, UGT2B7, and UGT2B15, respectively), 5 mM UDPGA, 5 mM MgCl2, 50 mM Tris-HCl buffer (pH 7.4), and 4-MU in the absence or presence of various concentrations of kurarinone. The concentrations of 4-MU were as follows: 110 μM for UGT1A1 and UGT1A6, 1200 μM for UGT1A3 and UGT2B4, 15 μM for UGT1A7, 750 μM for UGT1A8, 30 μM for UGT1A9, 80 μM for UGT1A10, 350 μM for UGT2B7, 250 μM for UGT2B15, and 2000 μM for UGT2B17. Kurarinone was dissolved in methanol, and the final concentration of methanol was 0.5% (v/v). Reactions were initiated by adding UDPGA, and incubations were carried out at 37°C in a shaking waterbath for 60 min. The reactions were terminated by addition of 200 μL of ice-cold acetonitrile containing 7-hydroxycoumarin (100 μM) as the internal standard. The incubation mixture was then centrifuged at 20,000 ×g for 20 min to obtain the supernatant, and an aliquot of supernatant (20 μL) was transferred to an autoinjector vial for HPLC analysis.

HL-7702 cells = conditions: cited from earlier work

SMILES: C=C(C)[C@H](CC=C(C)C)Cc1c(O)cc(OC)c2c1O[C@H](c1ccc(O)cc1O)CC2=O [Kurarinone]
- t1/2 ([1]; intravenous 10 mg/kg): 1.81 h
- Cmax [1]: 1668.01 ng/mL
- Papp at 5 h (PAMPA permeability study; pH = 4): 3.87 ± 1.39 ×10⁻⁶ cm/s
- Papp at 5 h (PAMPA permeability study; pH = 7): 2.14 ± 0.82 ×10⁻⁶ cm/s
- PAMPA permeability class (PAMPA permeability study; pH 4.0 and 7.4): moderate permeability
- inhibition type against UGT1A1 (UGT1A1; Dixon and Lineweaver–Burk plots): noncompetitive
- inhibition at 60 min, 100 μM (UGT1A1; human, recombinant UGT1A1, pH 7.4, probe 4-MU (110 μM), 100 μM kurarinone, 4-MU glucuronidation, recombinant UGT): > 90%
- IC50 (UGT1A1; recombinant UGT1A1, 4-MU glucuronidation, read-out: IC50 against UGT1A1): 13.6 µM
- Ki (UGT1A1; second plot of slopes from Lineweaver–Burk plots): 13 µM
- cytotoxicity (HL-7702 cells): remarkable cytotoxicity
